The target of one test is T1, PCSK9/LDLR (Homo sapiens, UniProt Q8NBP7).
T1 construct: purchased CircuLex (CycLex Co., Nagano, Japan)
Briefly: In vitro PCSK9-LDLR binding assay (CircuLex/CycLex kit). As to conditions: for IC50: mean ± SD, three independent experiments, Hill slope fixed at −1. The method, then: Diimidazole analogues (0.1–1 × 10^6 nM) were tested using the in vitro PCSK9-LDLR binding assay (CycLex Co., Nagano, Japan) following the manufacturer’s instructions and with the conditions already optimized.[15] Briefly, the plates were pre-coated with a recombinant LDLR-AB domain containing the binding site of PCSK9. Before starting the assay, the tested analogues and/or the vehicle in DMSO were sonicated at 37 °C, diluted in the reaction buffer, and added in microcentrifuge tubes. Afterward, the reaction mixtures were added in each well of the microplate, and the reaction was started by adding His-tagged PCSK9 solution (3 μL). The microplate was allowed to incubate for 2 h at room-temperature (RT) shaking at 300 rpm on an orbital microplate shaker. Subsequently, the wells were washed 4 times with the wash buffer. After the last wash, the biotinylated anti-His-tag monoclonal antibody (100 μL) was added and incubated at RT for 1 h shaking at 300 rpm. After incubation, the wells were washed 4 times with wash buffer. After the last wash, 100 μL of HRP-conjugated streptavidin were added, and the plate was incubated for 20 min at RT. After incubation, the wells were washed 4 times with wash buffer. Finally, the substrate reagent (tetra-methylbenzidine) was added, and the plate was incubated for 10 min at RT shaking at ca. 300 rpm. The reaction was stopped with 2.0 M sulfuric acid, and the absorbance at 450 nm was measured using a Synergy H1 fluorescent plate reader (Winooski, VT, USA).
All the data sets were checked for normal distribution by D’Agostino and Pearson tests. Since they are all normally disturbed with p values of […], we proceeded with statistical analyses of one-way ANOVA followed by Tukey’s post hoc test using Graphpad Prism 9 (San Diego, CA, USA). Values were reported as means ± s.d.; p values of <0.05 were considered to be significant. The IC50 values of samples inhibiting PCSK9-LDLR binding were evaluated by using the log(inhibitor) vs response model of GraphPad Prism 9 (San Diego, CA, USA). This model assumes that the dose–response curves has a standard slope, equal to a Hill slope (or slope factor) of −1.0. This is the slope expected when a ligand binds to a receptor following the law of mass action and is the slope expected of a dose–response curve when the second messenger created by receptor stimulation binds to its receptor by the law of mass action (https://graphpad.com/guides/prism/latest/curvefitting/reg_dr_inhibit.htm).

In a further test the test system is platelet-rich plasma. Briefly: Platelet aggregation by light transmission aggregometry (PCSK9-potentiated, epinephrine-induced). Format: cell-based, human. As to conditions: 10 nM preincubated with PCSK9 5 μg/mL; epinephrine 0.16 μM; n = 5 healthy donors. The method, then: Whole blood (WB) was drawn with a 19-gauge needle without venous stasis into citrate (1/10 volume of 0.129 M sodium citrate), discarding the first 4 mL. Platelet-rich plasma (PRP) was obtained by centrifuging whole blood for 10 min at 100g without breaks at room temperature as previously described.[44]
Platelet function was assessed by light transmission aggregometry using PAP-8 aggregometer (BioData). Lag time and area under the curve (AUC) were used as the main parameters describing the kinetic of platelet aggregation as previously described.[3] Briefly, PRP was preincubated with PCSK9 (5 μg/mL, 2 min at 37 °C) followed by epinephrine (0.16 μM) stimulation. To test the effect of Dim16 on PCSK9-dependent platelet aggregation, PCSK9 was preincubated with Dim16 (10 nM) for 15 min at room temperature and then added to PRP.

T1 sequence (Q8NBP7 153-692): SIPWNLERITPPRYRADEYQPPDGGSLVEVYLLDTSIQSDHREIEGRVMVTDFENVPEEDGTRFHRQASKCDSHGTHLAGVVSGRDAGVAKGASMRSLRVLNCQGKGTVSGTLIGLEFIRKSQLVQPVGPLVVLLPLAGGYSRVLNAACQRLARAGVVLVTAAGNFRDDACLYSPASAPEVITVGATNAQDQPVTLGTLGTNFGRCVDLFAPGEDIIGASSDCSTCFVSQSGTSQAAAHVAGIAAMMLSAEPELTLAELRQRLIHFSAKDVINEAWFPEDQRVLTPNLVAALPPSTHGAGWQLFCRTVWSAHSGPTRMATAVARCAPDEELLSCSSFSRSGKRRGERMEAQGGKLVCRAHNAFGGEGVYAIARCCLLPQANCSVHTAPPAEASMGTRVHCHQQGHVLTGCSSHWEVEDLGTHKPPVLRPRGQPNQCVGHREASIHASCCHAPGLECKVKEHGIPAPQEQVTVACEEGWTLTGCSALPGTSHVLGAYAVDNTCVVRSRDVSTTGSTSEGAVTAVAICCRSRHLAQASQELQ
T1 sequence (Q8NBP7 31-152 limits assumed): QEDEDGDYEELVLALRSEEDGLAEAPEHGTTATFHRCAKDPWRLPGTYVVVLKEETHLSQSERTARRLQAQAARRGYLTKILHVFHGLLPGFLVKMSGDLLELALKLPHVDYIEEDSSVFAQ

What is called IC50 is the concentration at which inhibition is half-maximal. On to `C#Cc1ncc(-c2ncc(-c3ccc4ccccc4c3)n2CCCC(C)(C)C)n1CCCCCNC` [Dim3, 5-(1-(4,4-Dimethylpentyl)-2′-ethynyl-5-(naphthalen-2-yl)-1H,3′H-[2,4′-biimidazol]-3′-yl)-N-methylpentan-1-amine], for which the IC50 at PCSK9/LDLR turned out to be 9 ± 10 nM.
In the case of `CNCCCCCn1c(-c2ncc(-c3ccc4ccccc4c3)n2CCCC(C)(C)C)cnc1I` [Dim16, 5-(1-(4,4-Dimethylpentyl)-2′-iodo-5-(naphthalen-2-yl)-1H,3′H-[2,4′-biimidazol]-3′-yl)-N-methylpentan-1-amine], the “effect on PCSK9 potentiation of platelet aggregation (lag time, AUC)” value with platelet-rich plasma was “significantly prevented”. In addition, on PCSK9/LDLR, the IC50 stood at 0.8 ± 1 nM. Further, at PCSK9/LDLR (ratio versus P5), the “PCSK9/LDLR PPI, fold more active than P5” value worked out at 2000.

These data come from PMC10291552, “Computational Design, Synthesis, and Biological Evaluation of Diimidazole Analogues Endowed with Dual PCSK9/HMG-CoAR-Inhibiting Activity” (Journal of Medicinal Chemistry, 2023).
